From patent US20080008658A1, “Contrast Agent Formulations for the Visualization of the Lymphatic System” (Bracco Imaging SpA, priority 2004, published 2008)

Experiment: Particle size distribution of microbubble suspensions in the Coulter Multisizer, method b (flotation purification from gas-free particles)
Format: physicochemical
Procedure: Dye-containing suspensions of gas-containing ultrasound contrast agents of the invention were analyzed for the particle size distributions in the Coulter® Multisizer (Beckman Coulter Inc. Fullerton, Calif., USA). […] Two methods may be used to determine the distribution of just the gas-containing particles in the compositions of the invention. Method b) The frequency distribution of the diameter of gas-containing particles is obtained after purification of the initial particle suspension from gas-free particles. Purification is achieved by flotation of the gas-containing particles in a centrifuge and substitution of the infranatant containing the gas-free particles with fresh saline. The procedure is executed once or twice depending on the initial contamination by gas-free particles. This method is preferable in those cases wherein the amount of insoluble material in the gas-containing particles exceeds 10% of the total insoluble material, in the initial suspension. The results may be represented either in the form of plots of the frequency distributions (e.g. example 11 and FIG. 1) or as parameters elaborated therefrom, i. e. total microbubble concentration, total microbubble surface, microbubble volume concentration and mean diameter in number (e.g. example 12). […]

Cc1cc(-c2ccc(/N=N/c3ccc4c(S(=O)(=O)O)cc(S(=O)(=O)O)c(N)c4c3O)c(C)c2)ccc1/N=N/c1ccc2c(S(=O)(=O)O)cc(S(=O)(=O)O)c(N)c2c1O [Evans blue]
Interference with the regular formation of microbubbles (SonoVue reconstituted with saline containing Evans blue vs regular SonoVue, echographic perspective): negligible
Stability of the microbubbles (time 0 vs after 3 h, presence of Evans blue): did not jeopardize the stability of the microbubbles
